Assay results from patent US8952024B2, “Herbicidal pyrimidone derivatives” (E I du Pont de Nemours and Company, priority 2009, dated 2015).

Key:
Assay in all cases: Test B pre-/postemergence plant response
Assay type in all cases: in vivo
[1] = test system: Surinam grass (Brachiaria decumbens); conditions: for Plant response rating, Surinam Grass: Postemergence, scale 0 to 100 (0 no effect, 100 complete control)
Method in brief: (§1)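 Ratings reflect visual comparison with untreated controls 13 to 15 days after application, from 0 (no effect) to 100 (complete control). Application was preemergence to seeded loam/sand soil or postemergence to 1- to 4-leaf plants, with compound in a non-phytotoxic, surfactant-containing solvent.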

[2] = test system: blackgrass (Alopecurus myosuroides)
Method in brief: as §1

[3] = test system: cocklebur (Xanthium strumarium)
Method in brief: as §1

[4] = test system: corn (Zea mays)
Method in brief: as §1

[5] = test system: downy bromegrass (Bromus tectorum)
Method in brief: as §1

[6] = test system: giant foxtail (Setaria faberii)
Method in brief: as §1

[7] = test system: goosegrass (Eleusine indica)
Method in brief: as §1

[8] = test system: green foxtail (Setaria viridis)
Method in brief: as §1

[9] = test system: johnsongrass (Sorghum halepense)
Method in brief: as §1

[10] = test system: kochia (Kochia scoparia)
Method in brief: as §1

[11] = test system: large crabgrass (Digitaria sanguinalis)
Method in brief: as §1

[12] = test system: morningglory (Ipomoea coccinea)
Method in brief: as §1

[13] = test system: soybean (Glycine max); conditions: for Plant response rating, Soybean: Postemergence, scale 0 to 100 (0 no effect, 100 complete control)
Method in brief: as §1

[14] = test system: velvetleaf (Abutilon theophrasti); conditions: for Plant response rating, Velvetleaf: Postemergence, scale 0 to 100 (0 no effect, 100 complete control)
Method in brief: as §1

[15] = test system: wild oat (Avena fatua)
Method in brief: as §1

[16] = test system: woolly cupgrass (Eriochloa villosa)
Method in brief: as §1

[17] = test system: yellow nutsedge (Cyperus esculentus)
Method in brief: as §1

[18] = 62 g ai/ha, postemergence, 0 is no effect, 100 is complete control, 13 to 15 days
[19] = 31 g ai/ha, postemergence, scale 0 to 100, 0 is no effect, 100 is complete control
[20] = Postemergence, 125 g ai/ha, scale 0 to 100 (0 no effect, 100 complete control)
[21] = Postemergence, 250 g ai/ha, scale 0 to 100 (0 no effect, 100 complete control)

O=C1CCCC(O)=C1C(=O)c1cnc(-c2ccsc2)n(CC2CCCO2)c1=O (centres unmarked) [Compound 98]
35: Plant response rating, Corn [4, 19] | Corn plant response rating (0 to 100 scale) [4, 18]
98: Plant response rating, Cocklebur [3, 19] | Plant response rating, Johnsongrass [9, 21] | Plant response rating, Kochia [10, 21] | Soybean plant response rating (0 to 100 scale) [13, 18] | Plant response rating, Soybean ([13]; 125 g ai/ha) | Plant response rating, Velvetleaf ([14]; 250 g ai/ha)
30: Plant response rating, Foxtail, Green [8, 19]
95: Plant response rating, Foxtail, Green [8, 21] | Plant response rating, Crabgrass, Large [11, 21] | Velvetleaf plant response rating (0 to 100 scale) [14, 18] | Plant response rating, Velvetleaf ([14]; 125 g ai/ha) | Plant response rating, Cupgrass, Woolly [16, 21]
10: Plant response rating, Oat, Wild [15, 19]
0: Plant response rating, Blackgrass [2, 19]
60: Plant response rating, Goosegrass [7, 19] | Nutsedge, Yellow plant response rating (0 to 100 scale) [17, 18]
85: Plant response rating, Surinam Grass ([1]; 125 g ai/ha) | Plant response rating, Foxtail, Giant [6, 20] | Plant response rating, Foxtail, Giant [6, 21] | Foxtail, Green plant response rating (0 to 100 scale) [8, 18] | Plant response rating, Foxtail, Green [8, 20] | Morningglory plant response rating (0 to 100 scale) [12, 18]
65: Plant response rating, Foxtail, Giant [6, 19] | Plant response rating, Kochia [10, 19] | Plant response rating, Cupgrass, Woolly [16, 19]
55: Plant response rating, Corn [4, 20] | Plant response rating, Johnsongrass [9, 19]
40: Plant response rating, Bromegrass, Downy [5, 21]
75: Surinam Grass plant response rating (0 to 100 scale) [1, 18] | Foxtail, Giant plant response rating (0 to 100 scale) [6, 18] | Goosegrass plant response rating (0 to 100 scale) [7, 18] | Plant response rating, Johnsongrass [9, 20] | Plant response rating, Crabgrass, Large [11, 19] | Crabgrass, Large plant response rating (0 to 100 scale) [11, 18] | Plant response rating, Cupgrass, Woolly [16, 20] | Plant response rating, Nutsedge, Yellow [17, 21]
20: Plant response rating, Blackgrass [2, 20] | Oat, Wild plant response rating (0 to 100 scale) [15, 18] | Plant response rating, Oat, Wild [15, 20]
70: Plant response rating, Corn [4, 21] | Johnsongrass plant response rating (0 to 100 scale) [9, 18] | Kochia plant response rating (0 to 100 scale) [10, 18] | Plant response rating, Morningglory [12, 19] | Cupgrass, Woolly plant response rating (0 to 100 scale) [16, 18] | Plant response rating, Nutsedge, Yellow [17, 20]
90: Plant response rating, Surinam Grass ([1]; 250 g ai/ha) | Plant response rating, Goosegrass [7, 21]
100: Cocklebur plant response rating (0 to 100 scale) [3, 18] | Plant response rating, Cocklebur [3, 20] | Plant response rating, Cocklebur [3, 21] | Plant response rating, Morningglory [12, 20] | Plant response rating, Morningglory [12, 21] | Plant response rating, Soybean ([13]; 250 g ai/ha)
80: Plant response rating, Goosegrass [7, 20] | Plant response rating, Kochia [10, 20] | Plant response rating, Crabgrass, Large [11, 20]
50: Plant response rating, Blackgrass [2, 21] | Plant response rating, Oat, Wild [15, 21] | Plant response rating, Nutsedge, Yellow [17, 19]
5: Blackgrass plant response rating (0 to 100 scale) [2, 18] | Plant response rating, Bromegrass, Downy [5, 19] | Bromegrass, Downy plant response rating (0 to 100 scale) [5, 18] | Plant response rating, Bromegrass, Downy [5, 20]
